Results: patent US20200017495A1, “NOVEL HETEROCYCLIC COMPOUNDS AND THEIR USE IN PREVENTING OR TREATING BACTERIAL INFECTIONS” (priority 2017, published 2020)

Test system: Klebsiella pneumoniae (KPN) isolates
Assay: MIC of compounds alone and combined with antibacterials, broth microdilution (CLSI)
Assay type: cell-based
Method: Method 2: MIC of Compounds Alone and Combined with Antibacterials Against Bacterial Isolates
Compounds of the present invention were assessed against genotyped bacterial strains (Table 3, 4) alone or in combination with an antibacterial (Table 2). […] Log phase bacterial suspensions were adjusted to a final density of 5.10^5 CFU/mL in cation-adjusted Mueller-Hinton broth (ca-MHB; Becton-Dickinson and Company) and added to each well (98 μL). Microplates were incubated for 16-20 h at 35° C. in ambient air. The MIC of the compounds was defined as the lowest concentration of said compounds that prevented bacterial growth as read by visual inspection. The MIC of ATB at each compound concentration was defined as the lowest concentration of ATB that prevented bacterial growth as read by visual inspection.

Measured: MIC ATB in combination

C=CC1=C(C(=O)O)N2C(=O)[C@@H](NC(=O)/C(=N\OCC(=O)O)c3csc(N)n3)[C@H]2SC1 [FIX, Cefixime]
4 mg/L: KPN UFR66, AF2 @ 8 μg/mL | KPN UFR66, AF3 @ 8 μg/mL | KPN UFR67, AF2 @ 8 μg/mL | KPN UFR67, AF3 @ 8 μg/mL
8 mg/L: KPN 6299, CLA @ 4 μg/mL | KPN 140513, AF2 @ 8 μg/mL | KPN UFR27, AF2 @ 8 μg/mL | KPN UFR27, AF3 @ 8 μg/mL
<0.25 mg/L: KPN 110376, AF2 @ 8 μg/mL | KPN 160143, AF2 @ 8 μg/mL | KPN 160143, AF3 @ 8 μg/mL | KPN 190551, AF2 @ 8 μg/mL | KPN 190551, AF3 @ 8 μg/mL | KPN 200047, AF2 @ 8 μg/mL | KPN 200047, AF3 @ 8 μg/mL | KPN 200327, AF2 @ 8 μg/mL | KPN 200327, AF3 @ 8 μg/mL | KPN 260376, AF2 @ 8 μg/mL | KPN 260376, AF3 @ 8 μg/mL | KPN ARA, AF3 @ 8 μg/mL | KPN LIB, AF2 @ 8 μg/mL | KPN LIB, AF3 @ 8 μg/mL | KPN UFR23, AF3 @ 8 μg/mL | KPN UFR25, AF2 @ 8 μg/mL | KPN UFR25, AF3 @ 8 μg/mL | KPN UFR28, AF2 @ 8 μg/mL | KPN UFR43, AF2 @ 8 μg/mL | KPN UFR43, AF3 @ 8 μg/mL | KPN UFR53, AF2 @ 8 μg/mL
64 mg/L: KPN BAA-1898, CLA @ 4 μg/mL | KPN UFR24, CLA @ 4 μg/mL | KPN UFR25, CLA @ 4 μg/mL | KPN UFR28, CLA @ 4 μg/mL | KPN UFR66, CLA @ 4 μg/mL | KPN UFR68, CLA @ 4 μg/mL
1 mg/L: KPN 190128, AF2 @ 8 μg/mL | KPN 190128, AF3 @ 8 μg/mL | KPN 190270, CLA @ 4 μg/mL
>128 mg/L: KPN 121206, AF2 @ 8 μg/mL | KPN 121206, AF3 @ 8 μg/mL | KPN 121206, CLA @ 4 μg/mL | KPN 131119, CLA @ 4 μg/mL | KPN 140513, CLA @ 4 μg/mL | KPN UFR27, CLA @ 4 μg/mL | KPN UFR33, AF3 @ 8 μg/mL | KPN UFR33, CLA @ 4 μg/mL | KPN UFR42, AF3 @ 8 μg/mL | KPN UFR42, CLA @ 4 μg/mL | KPN UFR43, CLA @ 4 μg/mL | KPN UFR46, AF2 @ 8 μg/mL | KPN UFR46, AF3 @ 8 μg/mL | KPN UFR46, CLA @ 4 μg/mL | KPN UFR76, AF2 @ 8 μg/mL | KPN UFR76, AF3 @ 8 μg/mL | KPN UFR76, CLA @ 4 μg/mL
<=0.25 μg/mL: KPN 6299, AF2 @ 8 μg/mL | KPN 6299, AF3 @ 8 μg/mL | KPN 110376, AF3 @ 8 μg/mL | KPN 131119, AF2 @ 8 μg/mL | KPN 131119, AF3 @ 8 μg/mL | KPN 190425, AF3 @ 8 μg/mL | KPN 190425, CLA @ 4 μg/mL | KPN 190551, CLA @ 4 μg/mL | KPN 200047, CLA @ 4 μg/mL | KPN 200327, CLA @ 4 μg/mL | KPN 260251, AF2 @ 8 μg/mL | KPN 260251, AF3 @ 8 μg/mL | KPN 260376, CLA @ 4 μg/mL | KPN 270077, AF3 @ 8 μg/mL | KPN 700603, AF2 @ 8 μg/mL | KPN ARA, AF2 @ 8 μg/mL | KPN BAA-1898, AF2 @ 8 μg/mL | KPN BAA-1898, AF3 @ 8 μg/mL | KPN LIB, CLA @ 4 μg/mL | KPN UFR22_O, AF2 @ 8 μg/mL | KPN UFR22_O, AF3 @ 8 μg/mL | KPN UFR22_O, CLA @ 4 μg/mL | KPN UFR23, AF2 @ 8 μg/mL | KPN UFR23, CLA @ 4 μg/mL | KPN UFR33, AF2 @ 8 μg/mL | KPN UFR53, AF3 @ 8 μg/mL | KPN UFR65, AF3 @ 8 μg/mL | KPN UFR77, AF3 @ 8 μg/mL
128 mg/L: KPN 110376, CLA @ 4 μg/mL | KPN 260252, CLA @ 4 μg/mL | KPN ARA, CLA @ 4 μg/mL | KPN UFR42, AF2 @ 8 μg/mL | KPN UFR53, CLA @ 4 μg/mL | KPN UFR65, CLA @ 4 μg/mL | KPN UFR67, CLA @ 4 μg/mL | KPN UFR77, CLA @ 4 μg/mL
0.5 mg/L: KPN 190128, CLA @ 4 μg/mL | KPN 190270, AF2 @ 8 μg/mL | KPN 190270, AF3 @ 8 μg/mL | KPN 190425, AF2 @ 8 μg/mL | KPN 270077, AF2 @ 8 μg/mL | KPN 270077, CLA @ 4 μg/mL | KPN 700603, AF3 @ 8 μg/mL | KPN 700603, CLA @ 4 μg/mL | KPN UFR24, AF2 @ 8 μg/mL | KPN UFR24, AF3 @ 8 μg/mL | KPN UFR65, AF2 @ 8 μg/mL | KPN UFR68, AF2 @ 8 μg/mL | KPN UFR68, AF3 @ 8 μg/mL | KPN UFR77, AF2 @ 8 μg/mL
32 mg/L: KPN 140513, AF3 @ 8 μg/mL | KPN 260251, CLA @ 4 μg/mL
2 mg/L: KPN 160143, CLA @ 4 μg/mL | KPN UFR28, AF3 @ 8 μg/mL
16 mg/L: KPN 260252, AF2 @ 8 μg/mL | KPN 260252, AF3 @ 8 μg/mL
